Test results as given in patent US20050197350A1, “Novel quinoline, tetrahydroquinazoline, and pyrimidine derivatives and methods of treatment related to the use thereof” (TAISHO PHARMACEUTICAL CO., LTD., priority 2003, published 2005).
Counter-ions that a name gives are not always drawn.

Target: MCH receptor (Homo sapiens, UniProt Q99705)
Assay: High throughput functional screening FLIPR/FDSS6000 (intracellular Ca2+ evoked by MCH)
Type: cell-based
Conditions: FLIPR/FDSS, antagonist activity vs 50 nM MCH; class by percent of control at 10^−7 M or IC50; read-out: class
Method in brief: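 For antagonist testing, compound-treated cells (30 min, 37 °C) were stimulated with 50 nM MCH and intracellular Ca2+ followed by Fluo4 fluorescence on FLIPR/FDSS6000. Receptor was a constitutively active, non-endogenous MCH receptor; dye loading 4 μM Fluo4-AM, 1 h, 37 °C.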

| IC50 | Compound |
| --- | --- |
| > 200 nM | COc1nc(N[C@H]2CC[C@@H](NC(=O)c3cc(C(F)(F)F)cc(C(F)(F)F)c3)CC2)ncc1C [Example 3280, N-{cis-4-[(4-methoxy-5-methylpyrimidin-2yl)amino]cyclohexyl}-3,5-bis(trifluoromethyl)benzamide] |
| < 50 nM | Cc1cnc(N[C@H]2CC[C@@H](NC(=O)N(C)c3ccc(Cl)cc3Cl)CC2)nc1N(C)C [Example 3348, N-(2,4-dichlorophenyl)-N′-(cis-4-{[4-(dimethylamino)-5-methylpyrimidin-2-yl]amino}cyclohexyl)-N-methylurea] |
| < 50 nM | CCN(C(=O)N[C@H]1CC[C@@H](Nc2ncc(C)c(N(C)C)n2)CC1)c1cc(C(F)(F)F)cc(C(F)(F)F)c1 [Example 3354, N-[3,5-bis(trifluoromethyl)phenyl]-N′-(cis-4-{[4-(dimethylamino)-5-methylpyrimidin-2-yl]amino}cyclohexyl)-N-ethylurea] |
| < 50 nM | Cc1cnc(N[C@H]2CC[C@@H](NC(=O)N(C)c3ccccc3OC(F)(F)F)CC2)nc1N(C)C [Example 3352, N′-(cis-4-{[4-(dimethylamino)-5-methylpyrimidin-2-yl]amino}cyclohexyl)-N-methyl-N-[2-(trifluoromethoxy)-phenyl]urea] |
| 50 to 200 nM | Cc1cnc(N[C@H]2CC[C@@H](NC(=O)Nc3ccc(F)c(Cl)c3)CC2)nc1N(C)C [Example 3331, N-(3-chloro-4-fluorophenyl)-N′-(cis-4-{[4-(dimethylamino)-5-methylpyrimidin-2-yl]amino}cyclohexyl)urea] |
| 50 to 200 nM | Cc1ccc(S(=O)(=O)c2ncccc2C(=O)N[C@H]2CC[C@@H](Nc3nc(C)cc(N(C)C)n3)CC2)cc1 [Example 3377, N-(cis-4-{[4-(dimethylamino)-6-methylpyrimidin-2-yl]amino}cyclohexyl)-2-[(4-methylphenyl)sulfonyl]nicotinamide] |
| 50 to 200 nM | CCN(C(=O)N[C@H]1CC[C@@H](Nc2ncc(C)c(N(C)C)n2)CC1)c1ccccc1OC(F)(F)F [Example 3349, N′-(cis-4-{[4-(dimethylamino)-5-methylpyrimidin-2-yl]amino}cyclohexyl)-N-ethyl-N-[2-(trifluoromethoxy)-phenyl]urea] |
| < 50 nM | Cc1cnc(N[C@H]2CC[C@@H](NC(=O)Nc3ccc(F)cc3)CC2)nc1N(C)C [Example 3326, N-(cis-4-{[4-(dimethylamino)-5-methylpyrimidin-2-yl]amino}cyclohexyl)-N′-(4-fluorophenyl)urea] |

Further lines, the compound ahead of its results:

| Compound | IC50 |
| --- | --- |
| Cc1cc(N[C@H]2CC[C@@H](C(=O)N[C@@H](C)c3ccc(Br)cc3)CC2)nc2ccccc12 [Example 3304, cis-N-[(1S)-1-(4-bromophenyl)ethyl]-4-[(4-methylquinolin-2-yl)amino]cyclohexanecarboxamide] | > 200 nM |
| Cc1cc(N[C@H]2CC[C@@H](C(=O)N[C@H](C)c3ccc(OC(F)(F)F)cc3)CC2)nc2ccccc12 [Example 3310, cis-4-[(4-methylquinolin-2-yl)amino]-N-{(1R)-1-[4-(trifluoromethoxy)phenyl]ethyl}cyclohexanecarboxamide] | > 200 nM |
| Cc1cc(N(C)C)nc(N[C@H]2CC[C@@H](NC(=O)NC3(c4ccc(Cl)cc4)CC3)CC2)n1 [Example 3267, N-[1-(4-chlorophenyl)cyclopropyl]-N′-(cis-4-{[4-(dimethylamino)-6-methylpyrimidin-2-yl]amino}cyclohexyl)urea] | < 50 nM |

Same assay, conditions: FLIPR/FDSS, antagonist activity vs 50 nM MCH; class by percent of control at 10^−7 M or IC50; table after the classification; read-out: class

| IC50 | Compound |
| --- | --- |
| < 50 nM | CN(C)c1nc(N[C@H]2CC[C@@H](NCCc3ccc(Br)cc3OC(F)(F)F)CC2)nc2c1CCCC2 [Example 14, N^2-{cis-4-[2-(4-Bromo-2-trifluoromethoxy-phenyl)-ethylamino]-cyclohexyl}-N^4,N^4-dimethyl-5,6,7,8-tetrahydro-quinazoline-2,4-diamine dihydrochloride] |
| > 200 nM | CN(C)c1cc(Cl)nc(N[C@H]2CC[C@@H](NC(=O)c3cccnc3Oc3ccccc3)CC2)n1 [Example 3233, N-[cis-4-(6-Chloro-4-dimethylamino-pyrimidin-2-ylamino)-cyclohexyl]-2-phenoxy-nicotinamide hydrochloride] |
| > 200 nM | Cc1cc(C)nc(N[C@H]2CC[C@@H](NC(=O)c3ccc(F)c(F)c3)CC2)n1 [Example 3142, N-[cis-4-(4,6-Dimethyl-pyrimidin-2-ylamino)-cyclohexyl]-3,4-difluoro-benzamide hydrochloride] |
| < 50 nM | Cc1cc(N[C@H]2CC[C@@H](NC(=O)c3cc(F)cc(F)c3)CC2)nc2ccccc12 [Example 3166, 3,5-Difluoro-N-[cis-4-(4-methylquinolin-2-ylamino)-cyclohexyl]-benzamide hydrochloride] |
| < 50 nM | Cc1cc(N(C)C)nc(N[C@H]2CC[C@@H](NC(=O)c3ccc(F)c(Cl)c3)CC2)n1 [Example 3230, 3-Chloro-N-[cis-4-(4-dimethylamino-6-methyl-pyrimidin-2-ylamino)-cyclohexyl]-4-fluoro-benzamide hydrochloride] |
| < 50 nM | CN(C)c1ccnc(N[C@H]2CC[C@@H](NC(=O)c3ccc(F)c(Cl)c3)CC2)n1 [Example 3206, 3-Chloro-N-[cis-4-(4-dimethylamino-pyrimidin-2-ylamino)-cyclohexyl]-4-fluoro-benzamide hydrochloride] |
| < 50 nM | Cc1cnc(N[C@H]2CC[C@@H](NC(=O)c3cc(F)cc(F)c3)CC2)nc1N(C)C [Example 3390, N-[cis-4-(4-Dimethylamino-5-methyl-pyrimidin-2-ylamino)-cyclohexyl]-3,5-difluoro-benzamide hydrochloride] |
| > 200 nM | CN(C)c1cc(Cl)nc(N[C@H]2CC[C@@H](NC(=O)c3ccc(F)c(F)c3)CC2)n1 [Example 3234, N-[cis-4-(6-Chloro-4-dimethylamino-pyrimidin-2-ylamino)-cyclohexyl]-3,4-difluoro-benzamide hydrochloride] |
| > 200 nM | CCNc1ccnc(N[C@H]2CC[C@@H](NC(=O)c3ccc(F)c(F)c3)CC2)n1 [Example 3225, N-[cis-4-(4-Ethylamino-pyrimidin-2-ylamino)-cyclohexyl]-3,4-difluoro-benzamide hydrochloride] |
| < 50 nM | O=C(N[C@H]1CC[C@@H](Nc2ccc3ccccc3n2)CC1)c1ccc(Cl)c(F)c1 [Example 3153, 4-Chloro-3-fluoro-N-[cis-4-(quinolin-2-ylamino)-cyclohexyl]-benzamide-hydrochloride] |

Further lines, the compound ahead of its results:

| Compound | IC50 |
| --- | --- |
| CNc1nc(N[C@H]2CC[C@@H](NCc3ccc(Br)cc3OC(F)(F)F)CC2)nc2c1CCCC2 [Example 9, N^2-[cis-4-(4-Bromo-2-trifluoromethoxy-benzyl)amino-cyclohexyl]-N^4-methyl-5,6,7,8-tetrahydro-quinazoline-2,4-diamine dihydrochloride] | > 200 nM |
| O=C(N[C@H]1CC[C@@H](Nc2ccc3ccccc3n2)CC1)c1cccnc1Oc1ccc(Br)cc1 [Example 3058, 2-(4-Bromo-phenoxy)-N-[cis-4-(quinolin-2-ylamino)-cyclohexyl]-nicotinamide hydrochloride] | < 50 nM |
| O=C(N[C@H]1CC[C@@H](NCc2ccc3ccccc3n2)CC1)c1ccc(F)c(F)c1 [Example 3156, 3,4-Difluoro-N-{cis-4-[(quinolin-2-ylmethyl)-amino]-cyclohexyl}-benzamide dihydrochloride] | > 200 nM |
| CN(C)c1nc(N[C@H]2CC[C@@H](C(N)Cc3ccccc3OC(F)(F)F)CC2)nc2c1CCCC2 (relative stereo) [Example 16, N^4,N^4-Dimethyl-N^2-{cis-4-[(2-trifluoromethoxy-benzyl)-amino-methyl]-cyclohexyl}-5,6,7,8-tetrahydro-quinazoline-2,4-diamine dihydrochloride] | < 50 nM |
| O=C(N[C@H]1CC[C@@H](Nc2ccc3ccccc3n2)CC1)c1csc([N+](=O)[O-])c1 [Example 3036, 5-Nitro-thiophene-3-carboxylic acid [cis-4-(quinolin-2-ylamino)-cyclohexyl]-amide hydrochloride] | < 50 nM |
| CN(C)c1nc(N[C@H]2CC[C@@H](NC(=O)c3cccnc3Oc3ccccc3)CC2)nc2c1CCCC2 [Example 3107, N-[cis-4-(4-Dimethylamino-5,6,7,8-tetrahydro-quinazolin-2-ylamino)-cyclohexyl]-2-phenoxy-nicotinamide hydrochloride] | < 50 nM |
| CN(C)N(c1ncc(Cl)cn1)[C@H]1CC[C@@H](NC(=O)c2cccnc2Oc2ccccc2)CC1 [Example 3137, N-[cis-4-(5-Chloro-dimethylamino-pyrimidin-2-ylamino)-cyclohexyl]-2-phenoxy-nicotinamide hydrochloride] | 50 to 200 nM |
| Cc1cc(N[C@H]2CC[C@@H](CNC(=O)c3ccc(F)c(F)c3)CC2)nc2ccccc12 [Example 3104, 3,4-Difluoro-N-[cis-4-(4-methyl-quinolin-2-ylamino)-cyclohexylmethyl]-benzamide hydrochloride] | 50 to 200 nM |
| CNc1cc(N[C@H]2CC[C@@H](CNCc3ccc(Br)cc3OC(F)(F)F)CC2)nc2ccccc12 [Example 3, N^2-{cis-4-[(4-Bromo-2-trifluoromethhxy-benzyl)-amino-methyl]-cyclohexyl}-N^4-methyl-quinoline-2,4-diamine dihydrochloride] | < 50 nM |
| Cc1ccc(Oc2ncccc2C(=O)N[C@H]2CC[C@@H](Nc3cc(C)c4ccccc4n3)CC2)cc1 [Example 3092, N-[cis-4-(4-Methyl-quinolin-2-ylamino)-cyclohexyl]-2-p-tolyloxy-nicotinamide hydrochloride] | < 50 nM |
| Cc1cc(N[C@H]2CC[C@@H](CNC(=O)Nc3cccc(Cl)c3Cl)CC2)nc2ccccc12 [Example 3106, 1-(2,3-Dichloro-phenyl)-3-[cis-4-(4-methyl-quinolin-2-ylamino)-cyclohexylmethyl]-urea hydrochloride] | < 50 nM |
| O=C(COc1cccc(Cl)c1)N[C@H]1CC[C@@H](Nc2ccc3ccccc3n2)CC1 [Example 3063, 2-(3-Chloro-phenoxy)-N-[cis-4-(quinolin-2-ylamino)-cyclohexyl]-acetamide hydrochloride] | < 50 nM |
